Values belong to the compound of their own block, whether it stands above or below them. Where a SMILES comes first, the peptide text is derived from it.
Assays:
[1] = test system: cells of endothelial cell lineage
Experimental: In this illustrative example, cells of endothelial cell lineage used as target cells for the selection and screening process were human adipose-derived stem cells (“ADAS cells”). […] Fibroblasts (16 Lu fibroblast cell line) were used as non-target cells in the selection and screening process.
These peptides were tested in a variety of assay formats for binding specificity against a panel of cells and cell lines to compare binding to cells of endothelial cell lineage (e.g., human umbilical vein endothelial cells, human coronary artery endothelial cells, porcine coronary artery endothelial cells, and human endothelial progenitor cells) versus binding to cells of an origin other than endothelial cell lineage (e.g., human artery smooth muscle cells, porcine artery smooth muscle cells, platelets, and other mammalian cell lines).

[2] = Phage display selection and ELISA-type peptide binding to teflon
Description: (§1) For example, a variety of different phage display libraries were screened for peptides that bind to a selected target substrate (e.g., a substrate selected to find a binding domain useful in the present invention). The substrate was either bound to or placed in (depending on the selected substrate) the wells of a 96 well microtiter plate. Nonspecific binding sites on the well surface of the polystyrene microtiter plate were blocked with a buffer containing 1% bovine serum albumin after overnight incubation at 4° C. The wells were then washed 5 times with a buffer containing phosphate buffered saline with Tween™ 20 (“PBS-T”). […] To detect phage that specifically bind to the selected substrate, enzyme-linked immunosorbent (ELISA-type) assays were performed using an anti-phage antibody conjugated to a detector molecule, followed by the detection and quantitation of the amount of detector molecule bound in the assay.
(§2) Relative binding strengths of the peptides were determined by testing serial dilutions of the peptide for binding to the selected substrate (as compared to a substrate used as a negative control; i.e. a substrate other than the selected substrate). Plotting the absorbance observed across the concentration range for each peptide sequence yielded a binding curve and rough dissociation constant (“KD”) of the peptides to its target substrate. […]

[3] = Phage display selection and ELISA-type peptide binding to polystyrene
Description: For example, a variety of different phage display libraries were screened for peptides that bind to a selected target substrate (e.g., a substrate selected to find a binding domain useful in the present invention). The substrate was either bound to or placed in (depending on the selected substrate) the wells of a 96 well microtiter plate. Nonspecific binding sites on the well surface of the polystyrene microtiter plate were blocked with a buffer containing 1% bovine serum albumin after overnight incubation at 4° C. The wells were then washed 5 times with a buffer containing phosphate buffered saline with Tween™ 20 (“PBS-T”). Each library was diluted in PBS-T and added at a concentration of 10^10 pfu/ml in a total volume of 100 μl. After 3 hour of incubation at room temperature with shaking at 50 rpm, unbound phage were removed by multiple washes with PBS-T. Bound phage were recovered by denaturation with 0.1 M glycine buffer, pH2.2. The eluted phage were neutralized with phosphate buffer, and then added to E. coli cells in growth media. The cell and phage-containing media was cultured by incubation overnight at 37° C. in a shaker at 200 rpm. Phage-containing supernatant was harvested from the culture after centrifuging the culture. […] To detect phage that specifically bind to the selected substrate, enzyme-linked immunosorbent (ELISA-type) assays were performed using an anti-phage antibody conjugated to a detector molecule, followed by the detection and quantitation of the amount of detector molecule bound in the assay.
as §2

[4] = Phage display selection and ELISA-type peptide binding to polyurethane
Description: as §1, §2

[5] = Peptide binding to titanium beads (phage selection, ELISA-type dilution series)
Experimental: As a specific illustrative example, titanium (in percent: Ti6Al4V) beads of approximately 5/32 of an inch diameter were washed with 70% ethanol, 40% nitric acid, distilled water, 70% ethanol, and acetone to remove any surface contaminants. One titanium bead was placed per well of 96-well polypropylene plate. Nonspecific binding sites on the titanium and the surface of the polypropylene were blocked with 1% bovine serum albumin (BSA) in PBS. The plate was incubated for 1 hour at room temperature with shaking at 50 rpm. The wells were then washed 5 times with 300 μl of PBS. Each library was diluted in PBS+1% BSA and was added at a concentration of 10^10 pfu/ml in a total volume of 250 μl. […]
as §2
As a specific example, titanium beads were blocked with 1% BSA in PBS for 30 minutes at room temperature. […] Beads were washed two times with PBS-T. PNPP (p-nitrophenyl phosphate) was used to develop the assay, and the absorbance was recorded at 405 nm. […]

Compound: CIKYPFLYCCLLSLFLFS [SEQ ID NO:56]
binding specificity for teflon [2]: specifically bind to teflon

Compound: CWSRFRLFMLFCMFYLVS [SEQ ID NO:55]
binding specificity for teflon [2]: specifically bind to teflon

Compound: FFGFDVYDMSNAL [SEQ ID NO:19]
binding specificity for polystyrene [3]: substantially retain binding specificity for polystyrene

Compound: FFPSSWYSHLGVL [SEQ ID NO:18]
binding specificity for polystyrene [3]: substantially retain binding specificity for polystyrene

Compound: FSYSVSYAHPEGL [SEQ ID NO:21]
binding specificity for polystyrene [3]: substantially retain binding specificity for polystyrene

Compound: SCYVNGHNSVWWVFWGVS (SCYVNGHNSVWVVVFWGVS) [SEQ ID NO:23]
binding specificity for polyurethane [4]: specifically binds to polyurethane

Now from value to compound, other results behind:

EC50 [1]: < 10 µM
Compound: CC(C)C[C@H](NC(=O)[C@H](C)NC(=O)[C@H](C)NC(=O)[C@H](CO)NC(=O)[C@@H]1CCCN1C(=O)[C@H](CCCNC(=N)N)NC(=O)[C@H](CC(C)C)NC(=O)[C@H](CC(C)C)NC(=O)[C@H](CO)NC(=O)[C@@H](NC(=O)[C@H](Cc1c[nH]cn1)NC(=O)[C@H](CCC(N)=O)NC(=O)[C@H](CS)NC(=O)[C@H](CO)NC(=O)[C@H](CO)NC(=O)[C@@H](N)CO)C(C)C)C(=O)NCC(=O)N1CCC[C@H]1C(=O)N[C@@H](CC(=O)O)C(=O)N[C@@H](CC(N)=O)C(=O)N[C@@H](CS)C(=O)N[C@@H](CS)C(=O)N[C@@H](CO)C(=O)N[C@@H](CCCNC(=N)N)C(=O)NCC(=O)N[C@@H](CO)C(=O)N[C@@H](CO)C(=O)NCC(=O)N[C@@H](CCCCN)C(=O)O [SEQ ID NO:95] (H-SSSCQHVSLLRPSAALGPDNCCSRGSSGK-OH; N-terminus and C-terminus assumed)

EC50 [1]: < 10 µM
Compound: CC(C)C[C@H](NC(=O)[C@H](C)NC(=O)[C@H](C)NC(=O)[C@H](CO)NC(=O)[C@@H]1CCCN1C(=O)[C@H](CCCNC(=N)N)NC(=O)[C@H](CC(C)C)NC(=O)[C@H](CC(C)C)NC(=O)[C@H](CO)NC(=O)[C@@H](NC(=O)[C@H](Cc1c[nH]cn1)NC(=O)[C@H](CCC(N)=O)NC(=O)[C@H](CS)NC(=O)[C@H](CO)NC(=O)[C@H](CO)NC(=O)[C@@H](N)CO)C(C)C)C(=O)NCC(=O)N1CCC[C@H]1C(=O)N[C@@H](CC(=O)O)C(=O)N[C@@H](CC(N)=O)C(=O)N[C@@H](CS)C(=O)N[C@@H](CO)C(=O)N[C@@H](CCCNC(=N)N)C(=O)NCC(=O)N[C@@H](CO)C(=O)N[C@@H](CO)C(=O)NCC(=O)N[C@@H](CCCCN)C(=O)O [SEQ ID NO:96] (H-SSSCQHVSLLRPSAALGPDNCSRGSSGK-OH; N-terminus and C-terminus assumed)

reduction in binding ([5]; as compared to SEQ ID NO:73 (two cysteines substituted by serine)): 10 fold
Compound: SDKSHKHWYSYESKYGGS [SEQ ID NO:74]
binding specificity for titanium [5]: substantially retained binding specificity
